Laboratory results published in patent US12390470B2, “1-methylxanthine-based bioactive composition and method of use thereof” (Ingenious Ingredients, LP, priority 2021, dated 2025).
Values joined by “and” are separate entries in the source; they are usually repeats but may differ in a detail not shown here. Equal values may be shown once.

Experiments:
gastrocnemius = test: Gastrocnemius muscle mass after 28 days supplementation; assay type: in vivo, mice
Description: (§1) Twenty-four 8-week-old male Swiss Albino mice were housed in an animal room at a constant temperature (22±3° C.) and humidity (30%-70%) under a 12:12 h light-dark cycle with standard laboratory diet (Purina 5L79, Rat and Mouse 18% protein; PMI Nutrition International, Brentwood, MO, USA). Distilled water was provided ad libitum. All animal experiments were reviewed and approved by the Institutional Animal Ethical Committee (IAEC) of Radiant Research Services Pvt. Ltd (Bangalore, India). All research was conducted in accordance with the guidelines of the committee for the purpose of control and supervision of experiments on animals.
After one week of acclimation, the animals were randomly divided by body weight into three groups (n=8 per group in each test) for oral treatment once a day, at approximately same time each day (±1 hour), for 28 consecutive days: (1) vehicle control or (2) 1-methylxanthine or (3) 1-methylxanthine plus paraxanthine. The dose administered to the mice was calculated using US Food and Drug Administration for human equivalence doses (HED), assuming a human weight of 60 kg. […] Food intake was monitored daily while water intake was ad libitum. BW was recorded weekly. […]

acetylcholine = test: Acetylcholine level in young and old rats; assay type: in vivo
Description: as §1, with “young (6-8 Week) and twenty-four old (14-16 Months)” for “8-week-old male”, “Wistar rats” for “mice”
After one week of acclimation, the animals were randomly divided by body weight and age into six groups (n=8 per group in each test) for oral treatment once a day, at approximately same time each day (±1 hour), for 10 consecutive days: (1) vehicle control or (2) 1-methylxanthine or (3) 1-methylxanthine plus paraxanthine. The dose administered to the rat was calculated using US Food and Drug Administration for human equivalence doses (HED), assuming a human weight of 60 kg. […] Food intake was monitored daily while water intake was ad libitum. […] Body weight was recorded weekly. […]

participant [1] = test: Concentration by Visual Analog Scale; assay type: in vivo, human; set-up: Concentration (Visual Analog Scale): scale not given here
Description: One participant ingested 200 mg dose of 1-methylxanthine (1-MX) orally with 8 fluid ounces of cold tap water. Concentration was measured by Visual Analog Scale (VAS) at baseline, 30, 60, 90, 120 and 180 minutes after ingestion.

participant [2] = test: Wakefulness by Visual Analog Scale; assay type: in vivo, human; conditions: Person two
Description: One participant ingested a non-energetic placebo (maltodextrin) followed by 200 mg dose of 1-methylxanthine (1-MX) one week later, orally with 8 fluid ounces of cold tap water. Wakefulness was measured by Visual Analog Scale (VAS) at baseline, 30, 60, 90, 120 and 180 minutes after ingestion.

## Cn1c(=O)[nH]c2nc[nH]c2c1=O [1-methylxanthine, 1-Methyl-3H-purine-2,6-dione]
gastrocnemius; 28 days
  gastrocnemius mass greater compared to control: 1.9%
gastrocnemius; 28 days after supplementation
  gastrocnemius mass: 161.1 ± 4.3 mg
acetylcholine; old rats, listed as 1-MX
  acetylcholine level: 56.33±3.42 U/ml and 56.33±3.58 U/ml
acetylcholine; young rats
  acetylcholine level: 63.35±4.12 U/ml
Participant [1]; Average
  Concentration (VAS) MEAN (30-180): 61.2
Participant [1]; Person one
  Concentration (VAS) MEAN (30-180): 54.4
Participant [1]; Person one, 30 min
  Concentration (Visual Analog Scale): 60
Participant [1]; Person one, 60 min
  Concentration (Visual Analog Scale): 61
Participant [1]; Person one, 90 min
  Concentration (Visual Analog Scale): 50
Participant [1]; Person one, 120 min
  Concentration (Visual Analog Scale): 50
Participant [1]; Person one, 180 min
  Concentration (Visual Analog Scale): 51
Participant [1]; Person one, time 0, 200 mg oral
  Concentration (Visual Analog Scale): 50
Participant [1]; Person two
  Concentration (VAS) MEAN (30-180): 68.0
Participant [1]; Person two, 30 min
  Concentration (Visual Analog Scale): 65
Participant [1]; Person two, 60 min
  Concentration (Visual Analog Scale): 65
Participant [1]; Person two, 90 min
  Concentration (Visual Analog Scale): 65
Participant [1]; Person two, 120 min
  Concentration (Visual Analog Scale): 75
Participant [1]; Person two, 180 min
  Concentration (Visual Analog Scale): 70
Participant [1]; Person two, time 0, 200 mg oral
  Concentration (Visual Analog Scale): 65
Participant [2]
  Wakefulness (VAS) MEAN: 69.0
Participant [2]; 30 min
  Wakefulness (Visual Analog Scale): 65
Participant [2]; 60 min
  Wakefulness (Visual Analog Scale): 65
Participant [2]; 90 min
  Wakefulness (Visual Analog Scale): 65
Participant [2]; 120 min
  Wakefulness (Visual Analog Scale): 75
Participant [2]; 180 min
  Wakefulness (Visual Analog Scale): 75
Participant [2]; time 0, 200 mg oral
  Wakefulness (Visual Analog Scale): 60
